The text below walks through data of PMC4620497 (Scientific Reports, 2015).

Read-outs that look alike come from different tables or passages of the source.

The subject of one assay is Karpas-299. The experiment in a line: MTT cell viability assay. The note with it: Homo sapiens, KARPAS-299, 72 h. On the technique in general: Formazan colour is commonly taken as a measure of viable cells.
A further assay deals with HeLa. The experiment in a line: MTT cell viability assay. The note with it: Homo sapiens, 72 h.
For another assay, the system named is MV4-11. The experiment in a line: MTT cell viability assay. The conditions noted are these: Homo sapiens, MV4-11, 72 h.
A further assay concerns A549. The experiment in a line: MTT cell viability assay. The conditions noted are these: Homo sapiens, A549, 72 h.
A further assay deals with U266. Put plainly: MTT cell viability assay. The conditions noted are these: Homo sapiens, U-266, 72 h.
The test system of assay [1] is Wnt/β-catenin signaling in STF3a cells. Put plainly: STF3a SuperTopFlash luciferase reporter assay. The class given is cell-based. The note with it: 24 h. The method, then:
The cell line STF3a, which stably expresses both the STF (SuperTopFlash) luciferase reporter promoter and the wnt3a gene was used to determine whether SKLB-677 can block the Wnt/β-catenin signaling. […]. […] Here we can conclude that the SKLB-677-mediated blockade of Wnt/β-catenin signaling is not due to FLT3 inhibition. We then examined whether the first-generation FLT3 inhibitors could inhibit Wnt/β-catenin signaling. […].
STF3a cells (8 × 10^3) were seeded overnight in 96-well plates (triplicate wells per treatment). Cells were treated with 0.1% DMSO or tested compounds for 24 h with Luciferase assay system (Promega) performed according to the manufacturer’s instructions. […] The reporter activity was expressed as relative values compared with vehicle control.
Figure 3 Effects of SKLB-677 on Wnt/β-catenin signaling. […]. All data points are means of triplicates ± SD. ns, not statistically significant, **P < 0.01, ***P < 0.005 among groups. […]. (c) STF3a cells were incubated with various concentrations of SKLB-677 for 24 h.The cell lysates were detected using the antibodies against S33/37/T41 Non-phospho β-catenin (active β-catenin), and total β-catenin (β-catenin). (d) STF3a cells were treated with indicated concentrations of SKLB-677 for 24 h. MYC, CCND1, and NKD1 mRNA expressions were determined through real-time qPCR analysis. All samples were normalized to the level of GAPDH (mean ± SEM from triplicate reactions). *P < 0.05, **P < 0.01, ***P < 0.005. (e) Representative images of zebrafish embryos at 24hpf with tail formation after incubation with various concentrations of SKLB-677 for 20 h. (f) Zebrafish embryos were injected with wnt8.1 mRNA (30 pg) or vehicle mRNA (phaenotype control). […]. Results shown in the histogram are expressed as the percentage of embryos in each phenotypic class after the treatment (n > 70). Class 1: wild-type, class 2: posteriorized, resulting in the loss of the eyes, and class 3: more severely posteriorized, as evidenced by head truncation.
In general terms: A reporter such as luciferase makes a cellular process visible.

Another assay has as its system Jurkat. Put plainly: MTT cell viability assay. The note with it: Homo sapiens, 72 h.
A further assay relates to BEL7402. The experiment in a line: MTT cell viability assay. The conditions noted are these: Homo sapiens, Bel-7402, 72 h.
The next assay relates to Raji. Put plainly: MTT cell viability assay. The conditions noted are these: Homo sapiens, 72 h.
The test system of another assay is MCF-7. The experiment in a line: MTT cell viability assay. The conditions noted are these: Homo sapiens, MCF7, 72 h.
The test system of another assay is SMMC7721. The experiment in a line: MTT cell viability assay. The conditions noted are these: Homo sapiens, SMMC-7721, 72 h.
A further assay concerns HL-60. Put plainly: MTT cell viability assay. The conditions noted are these: Homo sapiens, HL-60, 72 h.
Another assay deals with T1, SgK110 (Homo sapiens, UniProt P0C264).
T1 construct: purchased DiscoveRx KINOMEscan (Ambit Biosciences)
T1 sequence (P0C264 whole entry): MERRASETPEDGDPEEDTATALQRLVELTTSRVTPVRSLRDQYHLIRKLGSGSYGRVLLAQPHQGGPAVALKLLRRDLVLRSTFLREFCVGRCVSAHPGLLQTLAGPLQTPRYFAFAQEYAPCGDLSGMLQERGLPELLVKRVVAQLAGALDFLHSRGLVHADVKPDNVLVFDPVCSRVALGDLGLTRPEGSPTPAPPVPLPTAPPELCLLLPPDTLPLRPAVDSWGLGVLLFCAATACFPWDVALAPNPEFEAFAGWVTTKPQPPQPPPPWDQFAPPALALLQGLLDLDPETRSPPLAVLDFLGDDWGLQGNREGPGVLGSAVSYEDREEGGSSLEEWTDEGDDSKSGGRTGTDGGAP
Put plainly: KINOMEscan panel screen. Format: binding. The conditions noted are these: read-out: Percent Control(%).

Assay [2] addresses T2, TYK2(JH1domain-catalytic) (Homo sapiens, UniProt P29597).
T2 construct: TYK2(JH1domain-catalytic); purchased DiscoveRx KINOMEscan (Ambit Biosciences)
The experiment in a line: KINOMEscan panel screen. Format: binding. The note with it: read-out: Percent Control(%).

A further assay concerns the target T3, PIP5K1C (Homo sapiens, UniProt O60331).
T3 construct: purchased DiscoveRx KINOMEscan (Ambit Biosciences)
The experiment in a line: KINOMEscan panel screen. The note with it: read-out: Percent Control(%). Format: binding.

The target of the next assay is T4, TNNI3K (Homo sapiens, UniProt Q59H18).
T4 construct: purchased DiscoveRx KINOMEscan (Ambit Biosciences)
The experiment in a line: KINOMEscan panel screen. The class given is binding. The conditions noted are these: read-out: Percent Control(%).

A further assay addresses T5, PIP5K2B (Homo sapiens, UniProt P78356).
T5 construct: purchased DiscoveRx KINOMEscan (Ambit Biosciences)
The experiment in a line: KINOMEscan panel screen. The class given is binding. The conditions noted are these: read-out: Percent Control(%).

The target of another assay is T6, ULK3 (Homo sapiens, UniProt Q6PHR2).
T6 construct: purchased DiscoveRx KINOMEscan (Ambit Biosciences)
T6 sequence (Q6PHR2 whole entry): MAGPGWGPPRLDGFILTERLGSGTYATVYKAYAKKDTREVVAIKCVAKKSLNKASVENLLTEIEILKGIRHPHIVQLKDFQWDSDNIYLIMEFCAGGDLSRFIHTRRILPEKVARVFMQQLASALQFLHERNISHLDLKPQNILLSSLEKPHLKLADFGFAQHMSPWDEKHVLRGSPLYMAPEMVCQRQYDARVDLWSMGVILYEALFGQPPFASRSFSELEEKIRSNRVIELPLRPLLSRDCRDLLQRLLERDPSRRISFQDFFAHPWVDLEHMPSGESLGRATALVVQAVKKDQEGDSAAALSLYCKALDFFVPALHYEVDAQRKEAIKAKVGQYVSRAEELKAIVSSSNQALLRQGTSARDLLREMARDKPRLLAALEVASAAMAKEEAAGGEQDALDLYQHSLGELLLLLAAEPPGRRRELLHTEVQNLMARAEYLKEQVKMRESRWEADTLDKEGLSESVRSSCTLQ
Put plainly: KINOMEscan panel screen. The class given is binding. The note with it: read-out: Percent Control(%).

A further assay addresses T7, PKMYT1 (Homo sapiens, UniProt Q99640).
T7 construct: purchased DiscoveRx KINOMEscan (Ambit Biosciences)
Put plainly: KINOMEscan panel screen. Format: binding. The note with it: read-out: Percent Control(%).

The next assay concerns the target T8, PIM3 (Homo sapiens, UniProt Q86V86).
T8 construct: purchased DiscoveRx KINOMEscan (Ambit Biosciences)
The experiment in a line: KINOMEscan panel screen. The class given is binding. The conditions noted are these: read-out: Percent Control(%).

For a further assay, the target named is T9, LRRK2(G2019S) (Homo sapiens, UniProt Q5S007, G2019S).
T9 construct: purchased DiscoveRx KINOMEscan (Ambit Biosciences)
The experiment in a line: KINOMEscan panel screen. The conditions noted are these: read-out: Percent Control(%). The class given is binding.

A further assay has as its system KG-1. Put plainly: MTT cell viability assay. The note with it: Homo sapiens, KG-1, 72 h.
A further assay addresses T10, MAP4K3 (Homo sapiens, UniProt Q8IVH8).
T10 construct: purchased DiscoveRx KINOMEscan (Ambit Biosciences)
Put plainly: KINOMEscan panel screen. The class given is binding. The conditions noted are these: read-out: Percent Control(%).

The target in another assay is T11, MYLK (Homo sapiens, UniProt Q15746).
T11 construct: purchased DiscoveRx KINOMEscan (Ambit Biosciences)
The experiment in a line: KINOMEscan panel screen. The class given is binding. The note with it: read-out: Percent Control(%).

Another assay has as its target T12, CSNK1E (Homo sapiens, UniProt P49674).
T12 construct: purchased DiscoveRx KINOMEscan (Ambit Biosciences)
The experiment in a line: KINOMEscan panel screen. The conditions noted are these: read-out: Percent Control(%). Format: binding.

The target of a further assay is T13, CAMKK1 (Homo sapiens, UniProt Q8N5S9).
T13 construct: purchased DiscoveRx KINOMEscan (Ambit Biosciences)
T13 sequence (Q8N5S9 whole entry): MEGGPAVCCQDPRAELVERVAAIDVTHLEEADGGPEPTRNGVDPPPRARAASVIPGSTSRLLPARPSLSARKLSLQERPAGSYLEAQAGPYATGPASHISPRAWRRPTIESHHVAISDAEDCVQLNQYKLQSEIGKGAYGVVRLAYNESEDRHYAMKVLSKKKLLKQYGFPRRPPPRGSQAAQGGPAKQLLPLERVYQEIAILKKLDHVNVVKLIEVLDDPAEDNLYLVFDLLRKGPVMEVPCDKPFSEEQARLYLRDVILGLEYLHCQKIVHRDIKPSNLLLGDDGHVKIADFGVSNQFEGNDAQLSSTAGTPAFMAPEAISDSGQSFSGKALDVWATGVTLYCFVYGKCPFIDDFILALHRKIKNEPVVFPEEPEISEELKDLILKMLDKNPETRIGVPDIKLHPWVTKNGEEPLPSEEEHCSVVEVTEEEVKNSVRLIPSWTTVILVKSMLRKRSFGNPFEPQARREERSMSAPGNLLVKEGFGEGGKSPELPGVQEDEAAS
The experiment in a line: KINOMEscan panel screen. The note with it: read-out: Percent Control(%). Format: binding.

The next assay addresses T14, SGK3 (Homo sapiens, UniProt Q96BR1).
T14 construct: purchased DiscoveRx KINOMEscan (Ambit Biosciences)
Put plainly: KINOMEscan panel screen. Format: binding. The conditions noted are these: read-out: Percent Control(%).

Another assay deals with T15, CIT (Homo sapiens, UniProt O14578).
T15 construct: purchased DiscoveRx KINOMEscan (Ambit Biosciences)
Put plainly: KINOMEscan panel screen. Format: binding. The conditions noted are these: read-out: Percent Control(%).

The next assay addresses T16, p38-alpha (Homo sapiens, UniProt Q16539).
T16 construct: purchased DiscoveRx KINOMEscan (Ambit Biosciences)
Put plainly: KINOMEscan panel screen. Format: binding. The conditions noted are these: read-out: Percent Control(%).

Another assay has as its target LOK (Homo sapiens, UniProt O94804). The experiment in a line: KINOMEscan panel screen. The class given is binding. The note with it: read-out: Percent Control(%).
The next assay has as its target T17, CTK (Homo sapiens, UniProt P42679).
T17 construct: purchased DiscoveRx KINOMEscan (Ambit Biosciences)
Put plainly: KINOMEscan panel screen. The class given is binding. The conditions noted are these: read-out: Percent Control(%).

T12 sequence (P49674 whole entry): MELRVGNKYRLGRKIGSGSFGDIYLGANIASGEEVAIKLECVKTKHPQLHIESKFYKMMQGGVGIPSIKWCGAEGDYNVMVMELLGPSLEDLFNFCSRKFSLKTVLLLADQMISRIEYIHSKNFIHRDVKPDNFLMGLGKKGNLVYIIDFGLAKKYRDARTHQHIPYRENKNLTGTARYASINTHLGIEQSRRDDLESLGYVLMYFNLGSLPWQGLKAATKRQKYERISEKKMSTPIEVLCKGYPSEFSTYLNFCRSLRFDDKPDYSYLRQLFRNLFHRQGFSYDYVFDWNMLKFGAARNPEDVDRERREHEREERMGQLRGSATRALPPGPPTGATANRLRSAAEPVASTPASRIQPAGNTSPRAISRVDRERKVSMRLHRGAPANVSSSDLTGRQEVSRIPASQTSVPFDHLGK
T7 sequence (Q99640 whole entry): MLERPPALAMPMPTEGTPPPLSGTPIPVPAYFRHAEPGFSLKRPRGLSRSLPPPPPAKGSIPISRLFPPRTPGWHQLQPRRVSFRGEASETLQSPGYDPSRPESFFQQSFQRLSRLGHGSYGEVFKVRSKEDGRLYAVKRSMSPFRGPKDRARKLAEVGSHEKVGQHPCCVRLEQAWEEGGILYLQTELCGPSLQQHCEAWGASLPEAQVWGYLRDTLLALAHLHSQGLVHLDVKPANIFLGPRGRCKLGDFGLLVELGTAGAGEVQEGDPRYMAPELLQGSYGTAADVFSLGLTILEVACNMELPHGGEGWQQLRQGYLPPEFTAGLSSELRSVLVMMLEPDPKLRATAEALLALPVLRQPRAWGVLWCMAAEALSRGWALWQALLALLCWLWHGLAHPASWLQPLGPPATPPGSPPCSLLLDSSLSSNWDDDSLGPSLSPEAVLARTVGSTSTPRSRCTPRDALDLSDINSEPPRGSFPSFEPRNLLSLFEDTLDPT
T5 sequence (P78356 whole entry): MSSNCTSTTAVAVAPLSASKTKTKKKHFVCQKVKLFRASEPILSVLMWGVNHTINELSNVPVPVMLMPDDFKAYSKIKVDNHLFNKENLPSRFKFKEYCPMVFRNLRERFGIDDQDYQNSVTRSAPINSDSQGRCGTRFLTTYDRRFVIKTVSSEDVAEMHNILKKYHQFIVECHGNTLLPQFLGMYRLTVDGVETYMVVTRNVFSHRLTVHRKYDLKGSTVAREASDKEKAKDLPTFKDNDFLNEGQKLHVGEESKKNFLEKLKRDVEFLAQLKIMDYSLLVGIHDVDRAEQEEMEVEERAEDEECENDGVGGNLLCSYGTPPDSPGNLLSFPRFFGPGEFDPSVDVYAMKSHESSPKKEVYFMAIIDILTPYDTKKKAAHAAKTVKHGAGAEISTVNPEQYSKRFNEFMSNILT
T16 sequence (Q16539 whole entry): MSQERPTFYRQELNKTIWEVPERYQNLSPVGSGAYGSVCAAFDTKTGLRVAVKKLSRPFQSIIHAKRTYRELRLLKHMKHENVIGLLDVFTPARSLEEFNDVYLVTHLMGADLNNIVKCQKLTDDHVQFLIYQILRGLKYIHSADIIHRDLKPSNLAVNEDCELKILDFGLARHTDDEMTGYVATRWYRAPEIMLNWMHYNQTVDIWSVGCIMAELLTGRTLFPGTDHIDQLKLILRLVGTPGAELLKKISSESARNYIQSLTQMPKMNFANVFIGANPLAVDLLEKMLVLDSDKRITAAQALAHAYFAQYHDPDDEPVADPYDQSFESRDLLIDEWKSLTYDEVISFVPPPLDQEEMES
T2 sequence (P29597 871-1187 limits assumed): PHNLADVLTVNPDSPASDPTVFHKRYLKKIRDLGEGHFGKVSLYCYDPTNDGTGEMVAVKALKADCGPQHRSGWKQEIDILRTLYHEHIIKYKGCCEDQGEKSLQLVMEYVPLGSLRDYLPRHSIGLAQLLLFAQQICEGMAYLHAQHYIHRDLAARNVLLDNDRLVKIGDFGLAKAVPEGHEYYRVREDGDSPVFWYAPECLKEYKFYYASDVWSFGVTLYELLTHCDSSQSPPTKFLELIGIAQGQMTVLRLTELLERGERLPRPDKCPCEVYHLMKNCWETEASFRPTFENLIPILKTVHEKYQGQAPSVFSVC
T3 sequence (O60331 whole entry): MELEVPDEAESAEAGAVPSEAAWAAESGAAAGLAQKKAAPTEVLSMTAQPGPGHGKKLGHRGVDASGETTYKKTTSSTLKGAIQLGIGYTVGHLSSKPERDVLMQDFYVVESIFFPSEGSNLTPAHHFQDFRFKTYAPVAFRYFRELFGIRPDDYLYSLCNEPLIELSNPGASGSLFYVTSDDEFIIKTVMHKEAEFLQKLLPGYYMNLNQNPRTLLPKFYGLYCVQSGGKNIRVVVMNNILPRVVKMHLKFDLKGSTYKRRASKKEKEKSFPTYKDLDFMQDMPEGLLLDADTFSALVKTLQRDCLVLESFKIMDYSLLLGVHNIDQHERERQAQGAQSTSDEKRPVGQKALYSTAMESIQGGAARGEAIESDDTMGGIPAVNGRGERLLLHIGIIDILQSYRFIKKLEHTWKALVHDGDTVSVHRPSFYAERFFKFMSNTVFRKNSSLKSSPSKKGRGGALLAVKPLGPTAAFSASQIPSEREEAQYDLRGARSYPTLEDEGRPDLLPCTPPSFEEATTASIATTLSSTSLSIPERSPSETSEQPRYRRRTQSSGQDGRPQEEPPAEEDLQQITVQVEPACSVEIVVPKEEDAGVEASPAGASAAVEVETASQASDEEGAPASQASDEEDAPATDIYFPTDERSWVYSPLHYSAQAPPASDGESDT
T14 sequence (Q96BR1 whole entry): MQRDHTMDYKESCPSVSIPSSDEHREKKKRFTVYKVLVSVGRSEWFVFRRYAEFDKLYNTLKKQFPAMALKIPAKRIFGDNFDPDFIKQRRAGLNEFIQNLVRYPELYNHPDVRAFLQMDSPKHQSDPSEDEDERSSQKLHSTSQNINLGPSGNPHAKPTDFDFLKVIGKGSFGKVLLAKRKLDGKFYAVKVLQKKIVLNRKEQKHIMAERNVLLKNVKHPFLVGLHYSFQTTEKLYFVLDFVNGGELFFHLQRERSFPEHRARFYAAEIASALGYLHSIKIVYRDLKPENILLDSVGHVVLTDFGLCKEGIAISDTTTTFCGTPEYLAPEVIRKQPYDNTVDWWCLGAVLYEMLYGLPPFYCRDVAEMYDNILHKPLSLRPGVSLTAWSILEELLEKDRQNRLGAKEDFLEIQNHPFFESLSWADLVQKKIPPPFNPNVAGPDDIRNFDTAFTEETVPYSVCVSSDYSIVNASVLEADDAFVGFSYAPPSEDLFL

Consider `O=C(Nc1ccc(Oc2ncnc3[nH]ncc23)cc1)Nc1ccc(Cl)c(C(F)(F)F)c1` [Compound 1, 1-(4-(1H-pyrazolo[3,4-d]pyrimidin-4-yloxy)phenyl)-3-(4-chloro-3-(trifluoromethyl)phenyl)urea], for which the IC50 with Karpas-299 was greater than 10 µM; with HeLa, greater than 10 µM; in the assay on MV4-11, 4 nM; in the assay on A549, greater than 10 µM; in the assay with U266, greater than 10 µM; in the assay on Jurkat it was 8.72 µM. The IC50 in the assay with BEL7402, in the assay with Raji, in the assay on MCF-7, with SMMC7721 and with HL-60 was greater than 10 µM each time. For the same compound, the “attenuation of Wnt/β-catenin signaling” value in [1] (STF3a cells) is “very weak activity”.

With `CC(C)(C)c1cc(NC(=O)Nc2ccc(Oc3ncnc4[nH]ncc34)c(F)c2)no1` [SKLB-677, 1-(4-(1H-pyrazolo[3,4-d]pyrimidin-4-yloxy)-3-fluorophenyl)-3-(5-tert-butylisoxazol-3-yl)urea], the remaining binding at 10 µM on SgK110 was 100%; in [2], 44%; on PIP5K1C, 51%; at TNNI3K, 0%; on PIP5K2B, 98%; at ULK3 it was 51%. Moreover, the remaining binding at 10 µM at PKMYT1 was determined as 100%; at PIM3, 40%; on LRRK2(G2019S), 78%; at MAP4K3 it was 3.2%; on MYLK, 40%; on CSNK1E, 31%. The remaining binding at 10 µM is 4.4% at CAMKK1; 46% on SGK3; 16% on CIT; 0% at p38-alpha; 0% on LOK; 37% at CTK. Besides, the IC50 in the assay on KG-1 was 2 µM; in the assay with Karpas-299, 7 µM; with HeLa, 9.45 µM; in the assay with MV4-11, 0.079 nM; in the assay with MV4-11 (read-out: Cell viability IC50), 0.079 nM; in the assay on A549, 6.4 µM. In addition, the IC50 with U266 is greater than 10 µM; in [1] (STF3A, read-out: IC50, inhibition of the Wnt/β-catenin signaling) it was less than 0.1 µM; with Jurkat, 4.3 µM; with BEL7402, greater than 10 µM; with Raji, 7.9 µM; with MCF-7, greater than 10 µM. Moreover, the IC50 in the assay on SMMC7721 is greater than 10 µM; with HL-60 it was 8.9 µM.
